Experimental data reported in patent US11478498B2, “Topical pharmaceutical formulations containing a low concentration of benzoyl peroxide in suspension in water and a water-miscible organic solvent” (Dow Pharmaceutical Sciences, Inc., priority 2008, dated 2022).

Assay: Solubility of benzoyl peroxide in organic solvents by HPLC analysis
Format: physicochemical
Conditions: room temperature
Excerpt: An example of a preferred organic solvent for the formulation of the invention is a polyol, also known as a polyhydric alcohol. Representative examples of polyols include glycols and sugar alcohols. Preferred polyols for the formulation of the invention include polyether glycols, such as ethoxydiglycol, and propylene glycol. A preferred water-miscible organic solvent is propylene glycol. The inventors have determined by HPLC analysis that benzoyl peroxide is soluble in 100% propylene glycol at room temperature at a level between 0.2% and 0.3% w/w. A second preferred organic solvent is ethoxydiglycol, such as sold under the tradename Transcutol® (Gattefosse, Saint-Priest, France). It has been determined by HPLC analysis that benzoyl peroxide is soluble in ethoxydiglycol at room temperature at a level of about 4.9%. Another preferred organic solvent is polyethylene glycol, such as PEG 400.

O=C(OOC(=O)c1ccccc1)c1ccccc1 [benzoyl peroxide]
Solubility of benzoyl peroxide in ethoxydiglycol: about 4.9%
